Measured values reported in patent publication US20200397894A1, “COMPOSITIONS AND METHODS FOR TREATING CANCER” (University of Virginia Patent Foundation, priority 2016, published 2020).
“And” between values parts separate entries of the source, which are not always exact repeats. Equal values may be shown once.

Key:
[1] = tested on: PIG3V or PIG1 immortalized but not malignant melanocytic cell lines; experiment: Proliferation of immortalized non-malignant melanocytic cell lines; assay type: cell-based; settings: Homo sapiens
[2] = tested on: Cal27 cells; experiment: Rereplication by propidium iodide staining and FACS (HNSCC); assay type: cell-based, human
Experimental: The effect of pevonedistat treatment or CDT2, geminin, or EMI1 knockdown on the cell cycle (and induction of DNA rereplication) was assessed by flow cytometry with propidium iodide (PI) staining. […] Cells were collected, washed with PBS, and resuspended in ethanol (75%). Cells were subsequently treated with 20 μg of DNase-free RNase and stained with PI following the manufacturer's protocol. FACSCAN™ (Becton, Dickinson and Company, Franklin Lakes, N.J., United States of America) was used to analyze the samples and G0-G1, S, and G2-M fractions were segmented. Subsequent analysis using FLOWJO® (FLOWJO, LLC, Ashland, Oreg., United States of America) and ModFit (Verity Software House, Topsham, Me., United States of America) software was used to determine apoptotic and re-replicating fractions. Where indicated, Cal27 and FaDu cells were treated with pevonedistat for 48 hours and pulsed with BrdU (10 nM) for 1 hour in the dark prior to harvesting. Cells were washed with PBS and staining solution before fixation and permeabilization steps according to the manufacturer's protocol. Cells were subsequently stained with anti-BrdU antibody solution for 20 minutes at room temperature, washed, and stained with 7-AAD for 30 minutes at 4° C. Cells were resuspended in 1 ml of staining buffer and stored at 4° C. overnight before analysis. Sampled were analyzed on a FACSCAN™ (Becton, Dickinson and Company, Franklin Lakes, N.J., United States of America), and different fractions of BrdU positive cells were determined using FLOWJO® (FLOWJO, LLC, Ashland, Oreg., United States of America) and ModFit (Verity Software House, Topsham, Me., United States of America) software.

[3] = tested on: Cal27 cells; experiment: Clonogenic survival assay for radiation sensitivity; assay type: cell-based, human; set-up: SF4: unit not given here; settings: for SF4: S 0.1; for SER (sensitivity enhancement ratio): at 10% survival
Experimental: (§1) The effect of pevonedistat treatment or transient silencing of CDT2, geminin, or EMI1 on cell proliferation or on radiation sensitivity was tested using clonogenic survival assays. Cells were transfected with the appropriate si-RNA 48 hours prior to seeding. Cells were then counted using COUNTESS™ Automated Cell Counter (INVITROGEN™, Carlsbad, Calif., United States of America) and were seeded at 15,000 cells/plate in 60 mm dishes. Cells were irradiated 24 hours after seeding with various doses and were cultured for 7-10 days. Once colonies reached the appropriate size (>50 cells each), cells were washed twice with cold PBS, fixed in cold 100% methanol for 10 minutes, and stained with crystal violet (0.5%) for 10 minutes. The plates were washed, dried, and imaged using IMAGE LAB™ software (BioRad Laboratories, Inc., Hercules, Calif., United States of America). QUANTITY ONE® software (BioRad Laboratories, Inc., Hercules, Calif., United States of America) was used to quantify the number of colonies and survival curves were established based on the linear quadratic model, using the formula S=e^−αD-βD2; where S represents the surviving fraction and D the dose of irradiation. Results are represented as mean standard deviation (SD) of three independent experiments normalized to the corresponding non-irradiated plates for each group. When the effect of pevonedistat on cell radiosensitivity was tested, cells were seeded at 15,000 cells/60 mm plate and allowed to adhere for 4-6 hours. Pevonedistat was then added upon cell adherence at varying concentrations and cells were irradiated the following day. The duration of the experiment and the stopping procedure were as described above.

[4] = tested on: FaDu cells; experiment: as above; assay type: cell-based, human; set-up: SF4: unit not given here; settings: for SF4: S 0.1; for SER (sensitivity enhancement ratio): at 10% survival
Experimental: as §1

[5] = tested on: cullin neddylation in Cal27 or FaDu cells; experiment: Immunoblotting of cullin neddylation; assay type: cell-based, human; settings: 50 nM pevonedistat, 24 or 48 hours
Experimental: HNSCC cells were lysed using radio-immunoprecipitation assay (RIPA) lysis buffer (50 mM Tris, pH 8.0; 150 mM NaCl, 1% NP-40; 0.5% sodium deoxycolate; 0.1% SDS; 1 mM Benzamidin-HCl; 0.5 μg/ml Leupeptin; 0.5 μg/ml Aprotinin; 1 μg/ml pepstatin; 20 mM NaF; 20 mM Na3VO4). Equal amounts of protein were electrophoretically separated in a polyacrylamide 8-12% gel (Bio-Rad Laboratories, Inc., Hercules, Calif., United States of America), trans-blotted to a nitrocellulose membrane, and incubated with primary antibodies for one hour at room temperature or overnight at 4° C. The immunoblot signals were detected by enhanced chemiluminescence (EMD Millipore Corporation, Billerica, Mass., United States of America).

[6] = tested on: SqCC/Y1 HNSCC cells; settings: SqCC/Y1, 0.5 μM pevonedistat; cited from earlier work
[7] = Cal27, 20 nM pevonedistat 24 hours prior to irradiation
[8] = Cal27, 40 nM pevonedistat 24 hours prior to irradiation
[9] = Cal27, 60 nM pevonedistat 24 hours prior to irradiation
[10] = Cal27, 80 nM pevonedistat 24 hours prior to irradiation
[11] = 10 nM pevonedistat 24 hours prior to irradiation
[12] = 20 nM pevonedistat 24 hours prior to irradiation
[13] = 40 nM pevonedistat 24 hours prior to irradiation
[14] = 60 nM pevonedistat 24 hours prior to irradiation

Structure (SMILES): NS(=O)(=O)OCC1CC(n2ccc3c(NC4CCc5ccccc54)ncnc32)CC1O [pevonedistat, ((1S,2S,4R)-4-(4-((1S)-2,3-Dihydro-H-inden-1-ylamino)-7H-pyrrolo(2,3-d)pyrimidin-7-yl)-2-hydroxycyclopentyl)methyl sulphamate]
- IC50 [1]: > 500 nM
- cells undergoing rereplication ([2]; Cal27, 40 nM pevonedistat 48 hours plus 2 Gy at the 24 hour time point): 32.9%
- cells undergoing rereplication ([2]; Cal27, 40 nM pevonedistat for 48 hours): 16.8%
- cells exhibiting >4N DNA content ([2]; Cal27, 100 nM pevonedistat, PI staining): 61%
- α (linear quadratic model) [3, 7]: 1.50 × 10^−13
- β (linear quadratic model) [3, 7]: 0.049
- SF4 ([3]; Cal27, 20 nM pevonedistat): 6.893
- SER (sensitivity enhancement ratio) ([3]; Cal27, 20 nM pevonedistat): 1.171
- α (linear quadratic model) [3, 8]: 0.108
- β (linear quadratic model) [3, 8]: 0.052
- SF4 ([3]; Cal27, 40 nM pevonedistat): 5.692
- SER (sensitivity enhancement ratio) ([3]; Cal27, 40 nM pevonedistat): 1.419
- α (linear quadratic model) [3, 9]: 0.471
- β (linear quadratic model) [3, 9]: 0.009
- SF4 ([3]; Cal27, 60 nM pevonedistat): 4.457
- SER (sensitivity enhancement ratio) ([3]; Cal27, 60 nM pevonedistat): 1.812
- α (linear quadratic model) [3, 10]: 0.906
- β (linear quadratic model) [3, 10]: −0.020
- SF4 ([3]; Cal27, 80 nM pevonedistat): 2.702
- SER (sensitivity enhancement ratio) ([3]; Cal27, 80 nM pevonedistat): 2.702
- α (linear quadratic model) [4, 11]: 0.105
- β (linear quadratic model) [4, 11]: 0.017
- SF4 ([4]; 10 nM pevonedistat): 8.979
- SER (sensitivity enhancement ratio) ([4]; 10 nM pevonedistat): 1.055
- α (linear quadratic model) [4, 12]: 0.242
- β (linear quadratic model) [4, 12]: 0.006
- SF4 ([4]; 20 nM pevonedistat): 7.987
- SER (sensitivity enhancement ratio) ([4]; 20 nM pevonedistat): 1.186
- α (linear quadratic model) [4, 13]: 0.241
- β (linear quadratic model) [4, 13]: 0.014
- SF4 ([4]; 40 nM pevonedistat): 6.830
- SER (sensitivity enhancement ratio) ([4]; 40 nM pevonedistat): 1.387
- α (linear quadratic model) [4, 14]: 0.282
- β (linear quadratic model) [4, 14]: 0.013
- SF4 ([4]; 60 nM pevonedistat): 6.328
- SER (sensitivity enhancement ratio) ([4]; 60 nM pevonedistat): 1.49 and 1.497
- cullin neddylation [5]: inhibited cullin neddylation
- apoptosis (% of cells) [6]: 55%
